Our source for the MIC, MFC and IC50 values is ChEMBL document CHEMBL4828718, “Synthesis and Antifungal Activity Evaluation of Phloeodictine Analogues” (J Nat Prod, 2021).

The structures appear in SMILES notation. Converted amounts (≈) assume the structure as drawn. The source made the active and inactive calls.

In assay [1] the test system is Cryptococcus neoformans. Briefly: Antifungal activity against Cryptococcus neoformans ATCC 90113 assessed as fungal growth inhibition incubated for 72 hrs by alamar blue assay. The following applies: Cryptococcus neoformans, ATCC 90113, 72 h, read-out: MIC. The assay is classed as functional. (Alamar Blue is a resazurin reagent that responds to reducing activity.)

Assay [2] has as its system Aspergillus fumigatus. Briefly: Fungicidal activity against Aspergillus fumigatus ATCC 90906 assessed as fungal growth inhibition incubated for 72 hrs by alamar blue assay. The assay is classed as functional.
For assay [3], the system named is Nakaseomyces glabratus. Nature of the assay: Antifungal activity against Candida glabrata ATCC 90030 assessed as fungal growth inhibition incubated for 18 to 24 hrs by alamar blue assay. The assay is classed as functional.
Assay [4] has as its system Nakaseomyces glabratus. Nature of the assay: Fungicidal activity against Candida glabrata ATCC 90030 assessed as fungal growth inhibition incubated for 18 to 24 hrs by alamar blue assay. It counts as functional.
The test system of the next assay is Vero. Nature of the assay: Cytotoxicity against African green monkey Vero cells assessed as reduction in cell viability incubated for 48 hrs by neutral red dye based assay. Details: species or system Chlorocebus sabaeus. The following applies: Chlorocebus sabaeus, Vero, 48 h.
Assay [5] has as its system Aspergillus fumigatus. Briefly: Antifungal activity against Aspergillus fumigatus ATCC 90906 assessed as fungal growth inhibition incubated for 72 hrs by alamar blue assay. The assay is classed as functional.
Assay [6] relates to Cryptococcus neoformans. Briefly: Fungicidal activity against Cryptococcus neoformans ATCC 90113 assessed as fungal growth inhibition incubated for 72 hrs by alamar blue assay. It counts as functional. The note with it: Cryptococcus neoformans, ATCC 90113, 72 h, read-out: MFC.
Assay [7] has as its system Pichia kudriavzevii. Briefly: Fungicidal activity against Candida krusei ATCC 6258 assessed as fungal growth inhibition incubated for 18 to 24 hrs by alamar blue assay. The assay is classed as functional.
Assay [8] relates to Pichia kudriavzevii. Nature of the assay: Antifungal activity against Candida krusei ATCC 6258 assessed as fungal growth inhibition incubated for 18 to 24 hrs by alamar blue assay. The assay is classed as functional.
Assay [9] relates to Candida albicans. Briefly: Fungicidal activity against Candida albicans ATCC 90028 assessed as fungal growth inhibition incubated for 18 to 24 hrs by alamar blue assay. It counts as functional.
Assay [10] concerns Candida albicans. Nature of the assay: Antifungal activity against Candida albicans ATCC 90028 assessed as fungal growth inhibition incubated for 18 to 24 hrs by alamar blue assay. It counts as functional.
Where [11] appears, read: Aspergillus fumigatus, ATCC 90906, 72 h, read-out: MFC.
Setting [12] is: Nakaseomyces glabratus, ATCC 90030, time 18-24 hrs, read-out: MIC.
Where [13] appears, read: Nakaseomyces glabratus, ATCC 90030, time 18-24 hrs, read-out: MFC.
Where [14] appears, read: Aspergillus fumigatus, ATCC 90906, 72 h, read-out: MIC.
The mark [15] stands for this setting: Pichia kudriavzevii, ATCC 6258, time 18-24 hrs, read-out: MFC.
[16] abbreviates: Pichia kudriavzevii, ATCC 6258, time 18-24 hrs, read-out: MIC.
[17] abbreviates: Candida albicans, ATCC 90028, time 18-24 hrs, read-out: MFC.
The mark [18] stands for this setting: Candida albicans, ATCC 90028, time 18-24 hrs, read-out: MIC.

On to `CCCCCCCCCCCCCCC1(O)C(C)=C(C)C2=[N+](Cc3cc(OC)c(OC)c(OC)c3)CCCN21` (centres undefined), for which the minimum inhibitory concentration (MIC) (in general, the smallest concentration in the dilution series that meets the test's criterion for growth inhibition) in the assay on Cryptococcus neoformans [1] is 1.6 µM; in the assay on Nakaseomyces glabratus [3] (setting [12]) it was 4 µM; with Aspergillus fumigatus [5] (setting [14]) it was 4 µM; in the assay with Pichia kudriavzevii [8] (setting [16]), 1.9 µM; in the assay on Candida albicans [10] (setting [18]) it was 5.3 µM. Further, the MFC (in general, the lowest tested concentration that kills the fungus rather than only halting it) worked out at 4 µM in the assay on Aspergillus fumigatus [2] (setting [11]); 4 µM with Nakaseomyces glabratus [4] (setting [13]); 1.6 µM in the assay with Cryptococcus neoformans [6]; 1.9 µM in the assay on Pichia kudriavzevii [7] (setting [15]); 5.3 µM in the assay with Candida albicans [9] (setting [17]). The half-maximal inhibitory concentration (IC50) (in general, the point on the concentration scale where inhibition reaches its midpoint) with Vero is more than 40 µM.

`CCCCCCCCCCCCCCC1(O)C(C)=C(C)C2=[N+](Cc3cnnn3Cc3ccccc3)CCCN21` (centres undefined): the MIC in the assay on Cryptococcus neoformans [1] turned out to be 1.3 µM; in the assay with Nakaseomyces glabratus [3] (setting [12]) it was 3.4 µM; with Aspergillus fumigatus [5] (setting [14]), 6.8 µM; with Pichia kudriavzevii [8] (setting [16]), 2.8 µM; with Candida albicans [10] (setting [18]), 5.4 µM. Further, the minimum fungicidal concentration (MFC) stood at 6.8 µM with Aspergillus fumigatus [2] (setting [11]); 4.7 µM in the assay with Nakaseomyces glabratus [4] (setting [13]); 2 µM in the assay with Cryptococcus neoformans [6]; 2.8 µM in the assay on Pichia kudriavzevii [7] (setting [15]); 6.8 µM in the assay with Candida albicans [9] (setting [17]). In addition, in the assay with Vero, the half-inhibitory concentration (IC50) was more than 40 µM.

Consider `CCCCCCCCCCCCCCC1(O)C(C)=C(C)C2=[N+](CC(=O)c3cccs3)CCCN21` (centres undefined), for which the minimal inhibitory concentration (MIC) in the assay with Cryptococcus neoformans [1] turned out to be 12 µM; with Nakaseomyces glabratus [3] (setting [12]) it was 5.1 µM; in the assay with Aspergillus fumigatus [5] (setting [14]), 8.8 µM; in the assay on Pichia kudriavzevii [8] (setting [16]), 5.1 µM; in the assay on Candida albicans [10] (setting [18]) it was 7.4 µM. Moreover, the minimum fungicidal concentration (MFC) with Aspergillus fumigatus [2] (setting [11]) is 8.8 µM; in the assay on Nakaseomyces glabratus [4] (setting [13]), 5.1 µM; with Cryptococcus neoformans [6] it was 12 µM; in the assay with Pichia kudriavzevii [7] (setting [15]), 5.1 µM; in the assay with Candida albicans [9] (setting [17]) it was 7.4 µM. In the assay on Vero, the IC50 was 27 µM.

Regarding `CCCCCCCCCCCCCCC1(O)C(C)=C(C)C2=[N+](Cc3cccc(C(F)(F)F)c3)CCCN21` (centres undefined), the MIC with Cryptococcus neoformans [1] is 1.3 µM; in the assay on Nakaseomyces glabratus [3] (setting [12]) it was 2 µM; with Aspergillus fumigatus [5] (setting [14]), 4.2 µM; with Pichia kudriavzevii [8] (setting [16]) it was 2.8 µM; in the assay with Candida albicans [10] (setting [18]), 4.2 µM. For the same molecule, the MFC with Aspergillus fumigatus [2] (setting [11]) was found to be 6.3 µM; in the assay with Nakaseomyces glabratus [4] (setting [13]) it was 2 µM; in the assay with Cryptococcus neoformans [6] it was 1.7 µM; in the assay with Pichia kudriavzevii [7] (setting [15]), 2.8 µM; with Candida albicans [9] (setting [17]), 4.2 µM. For the same molecule, the IC50 in the assay with Vero turned out to be 27 µM.

On to `CCCCCCCCCCCCCCC1(O)C(C)=C(C)C2=[N+](CC(=O)O)CCCN21` (centres undefined), for which the MIC in the assay on Cryptococcus neoformans [1] turned out to be 5.4 µM. In addition, the MFC result with Aspergillus fumigatus [2], in the assay on Nakaseomyces glabratus [4] (time 18-24 hrs), in the assay on Pichia kudriavzevii [7] (time 18-24 hrs) and in the assay on Candida albicans [9] (time 18-24 hrs) was “inactive” in each case. In addition, the MIC entry with Nakaseomyces glabratus [3] (time 18-24 hrs), in the assay with Aspergillus fumigatus [5], in the assay with Pichia kudriavzevii [8] (time 18-24 hrs) and with Candida albicans [10] (time 18-24 hrs) was “inactive” each time. Further, the half-maximal inhibitory concentration (IC50) with Vero was more than 50 µM. Besides, in the assay on Cryptococcus neoformans [6], the minimum fungicidal concentration (MFC) was determined as 5.4 µM.

In the case of `CCCCCCCCCCCCCCC1(O)C(C)=C(C)C2=[N+](Cc3ccc(Cl)cc3)CCCN21` (centres undefined), the minimum inhibitory concentration (MIC) is 3.7 µM in the assay with Cryptococcus neoformans [1]; 2.1 µM with Nakaseomyces glabratus [3] (setting [12]); 4.4 µM in the assay on Aspergillus fumigatus [5] (setting [14]); 2.1 µM in the assay with Pichia kudriavzevii [8] (setting [16]); 3.7 µM in the assay with Candida albicans [10] (setting [18]). Besides, the minimum fungicidal concentration (MFC) in the assay on Aspergillus fumigatus [2] (setting [11]) was determined as 4.4 µM; with Nakaseomyces glabratus [4] (setting [13]) it was 2.1 µM; in the assay with Cryptococcus neoformans [6] it was 3.7 µM; in the assay on Pichia kudriavzevii [7] (setting [15]), 2.1 µM; with Candida albicans [9] (setting [17]) it was 3.7 µM. In the assay on Vero, the concentration for half-maximal inhibition (IC50) was 42 µM.

With `CCCCCCCCCCCCCCC1(O)C(C)=C(C)C2=[N+](Cc3ccccc3)CCCN21` (centres undefined), the MIC with Cryptococcus neoformans [1] was found to be 1.5 µM; in the assay with Nakaseomyces glabratus [3] (setting [12]), 2.2 µM; in the assay on Aspergillus fumigatus [5] (setting [14]), 4.7 µM; in the assay with Pichia kudriavzevii [8] (setting [16]), 2.2 µM; in the assay on Candida albicans [10] (setting [18]), 3.9 µM. Besides, the MFC with Aspergillus fumigatus [2] (setting [11]) amounted to 4.7 µM; in the assay with Nakaseomyces glabratus [4] (setting [13]) it was 2.2 µM; in the assay on Cryptococcus neoformans [6] it was 1.5 µM; in the assay with Pichia kudriavzevii [7] (setting [15]), 2.2 µM; in the assay with Candida albicans [9] (setting [17]), 3.9 µM. In addition, the half-inhibitory concentration (IC50) with Vero came out at 25 µM.

For `C[C@@H]1[C@H](O)[C@@H](C)/C=C/C=C/C=C/C=C/C=C/C=C/C=C/[C@H](O[C@@H]2O[C@H](C)[C@@H](O)[C@H](N)[C@@H]2O)C[C@@H]2O[C@](O)(C[C@@H](O)C[C@@H](O)[C@H](O)CC[C@@H](O)C[C@@H](O)CC(=O)O[C@H]1C)C[C@H](O)[C@H]2C(=O)O` [AMPHOTERICIN B], the MIC amounted to 0.65 µM (≈ 0.601 µg/mL) with Cryptococcus neoformans [1]; 0.65 µM (≈ 0.601 µg/mL) with Nakaseomyces glabratus [3] (setting [12]); 2.3 µM (≈ 2.13 µg/mL) in the assay on Aspergillus fumigatus [5] (setting [14]); 1.3 µM (≈ 1.2 µg/mL) in the assay with Pichia kudriavzevii [8] (setting [16]); 0.77 µM (≈ 0.712 µg/mL) in the assay with Candida albicans [10] (setting [18]). Further, the MFC with Aspergillus fumigatus [2] (setting [11]) was found to be 4 µM (≈ 3.7 µg/mL); with Nakaseomyces glabratus [4] (setting [13]), 0.65 µM (≈ 0.601 µg/mL); with Cryptococcus neoformans [6], 0.65 µM (≈ 0.601 µg/mL); in the assay with Pichia kudriavzevii [7] (setting [15]), 1.3 µM (≈ 1.2 µg/mL); with Candida albicans [9] (setting [17]), 0.97 µM (≈ 0.896 µg/mL). Besides, the IC50 with Vero was determined as 6.8 µM.

Turning to `CCCCCCCCCCCCCCC1(O)C(C)=C(C)C2=[N+](C/C=C/c3ccccc3)CCCN21` (centres undefined), the MIC in the assay on Cryptococcus neoformans [1] was found to be 1.4 µM; in the assay with Nakaseomyces glabratus [3] (setting [12]), 2.7 µM; in the assay with Aspergillus fumigatus [5] (setting [14]), 4.5 µM; in the assay on Pichia kudriavzevii [8] (setting [16]), 3 µM; in the assay with Candida albicans [10] (setting [18]), 3.8 µM. Also, the minimal fungicidal concentration (MFC) was 5.9 µM in the assay on Aspergillus fumigatus [2] (setting [11]); 4.1 µM with Nakaseomyces glabratus [4] (setting [13]); 4.1 µM with Cryptococcus neoformans [6]; 3.8 µM with Pichia kudriavzevii [7] (setting [15]); 3.8 µM with Candida albicans [9] (setting [17]). Also, the IC50 in the assay on Vero stood at 38 µM.
